From patent publication US11718614B2, “Compounds and methods for treatment of hedgehog pathway associated conditions” (Suzhou Mednes Pharma Tech Co., Ltd., priority 2018, dated 2023)

The molecules below were run on tumor cells from medulloblastoma developed from mice with deficiency in Patched1 gene (assay: MB assay: survival of medulloblastoma tumor cells by MTT after 48 hours). Conditions: Mus musculus, tumor cells treated 48 hours, cell survival by MTT.
Format: cell-based
Protocol: To test the effect of the novel compounds on the proliferation of tumor cell, we isolated tumor cells from medulloblastoma developed from mice with deficiency in Patched1 gene. Tumor cells were plated in vitro as previously described, and treated with various concentration of compounds for 48 hours. Tumor cells cultured were then harvested to measure cell survival based on MTT assay. The IC50 value for each compound was calculated using Prism the statistical software.
Table 1 below summarizes the IC50 data obtained using MB assay for exemplary compounds of the invention. IC50 values are shown as A, B, C, or D. A represents IC50 value between 1.0 μM and 5.0 μM; B is between 5.0 μM and 10 μM; C is between 10 μM to 20 μM; and D indicates greater than 20 μM.

Compared with `COc1ccc2c(c1)c(SC(C)(C)C)c(CC(C)(C)c1nc(C)co1)n2Cc1ccc(Cl)cc1` [Compound 31], `Cc1coc(C(C)(C)Cc2c(SC(C)(C)C)c3cc(O)ccc3n2Cc2ccc(Cl)cc2)n1` [Compound 32] is lower in IC50: > 20 µM for the first, 1 to 5 µM for the second.

First: COc1ccc2c(c1)c(-c1ccc(CC(C)C)cc1)c(C)n2Cc1ccccc1Cl [Compound 54]
Second: Cc1c(-c2ccc(CC(C)C)cc2)c2cc(O)ccc2n1Cc1ccccc1Cl [Compound 55]
The IC50 of the first is higher: > 20 µM for the first, 1 to 5 µM for the second.

`CC(C)c1ccc2c(c1)c(S(=O)(=O)CC(C)(C)C)c(CC(C)(C)C(=O)O)n2Cc1ccc(Cl)cc1` [Compound 7] and `CCOC(=O)C(C)(C)Cc1c(S(=O)(=O)CC(C)(C)C)c2cc(C(C)C)ccc2n1Cc1ccc(Cl)cc1` [Compound 8] fall in the same range of IC50: 10 to 20 µM for the first, 10 to 20 µM for the second.

First: CC(C)Cc1ccc(C(C)c2cc3cc(O)ccc3n2Cc2cccc(Cl)c2)cc1 (stereo not drawn) [Compound 49]
Second: COc1ccc2c(c1)cc(C(C)c1ccc(CC(C)C)cc1)n2Cc1cccc(Cl)c1 (stereo not drawn) [Compound 48]
The IC50 of the first is lower: 1 to 5 µM for the first, > 20 µM for the second. The first is the more potent here.

`COC(=O)C(C)(C)Cc1nc2cc(OC)ccc2n1Cc1ccccc1Cl` [Compound 58] and `COc1ccc2c(c1)nc(CC(C)(C)C(=O)O)n2Cc1ccccc1Cl` [Compound 57] cannot be ordered by IC50: > 20 µM for the first, > 20 µM for the second.

First: COc1ccc2c(c1)c(C(=O)CC(C)(C)C)c(CC(C)(C)CO)n2Cc1ccc(Cl)cc1 [Compound 23]
Second: CC(C)(C)CC(=O)c1c(CC(C)(C)CO)n(Cc2ccc(Cl)cc2)c2ccc(O)cc12 [Compound 25]
The IC50 of the first is lower: 5 to 10 µM for the first, > 20 µM for the second. The first is the more potent here.

First: CCc1noc(C(C)(C)Cc2c(SC(C)(C)C)c3cc(OC)ccc3n2Cc2ccc(Cl)cc2)n1 [Compound 33]
Second: CCc1noc(C(C)(C)Cc2c(SC(C)(C)C)c3cc(O)ccc3n2Cc2ccc(Cl)cc2)n1 [Compound 34]
The IC50 of the first is higher: > 20 µM for the first, 5 to 10 µM for the second.

First: COc1ccc2c(c1)nc(C(C)c1ccc(Br)cc1)n2Cc1ccccc1Cl (stereo not drawn) [Compound 39]
Second: COc1ccc2c(c1)nc(C(C)c1ccc(C#N)cc1)n2Cc1ccccc1Cl (stereo not drawn) [Compound 40]
The IC50 of the first is lower: 5 to 10 µM for the first, > 20 µM for the second. The first is the more potent here.

Compared with `CC(C)c1ccc2c(c1)c(SCC(C)(C)C)c(CC(C)(C)C(=O)O)n2Cc1ccc(Cl)cc1` [Compound 3], `CCOC(=O)C(C)(C)Cc1c(SCC(C)(C)C)c2cc(C(C)C)ccc2n1Cc1ccc(Cl)cc1` [Compound 4, ethyl 3-(1-(4-chlorobenzyl)-5-isopropyl-3-(neopentylthio)-1H-indol-2-yl)-2,2-dimethylpropanoate] is higher in IC50: 1 to 5 µM for the first, > 20 µM for the second. The first is the more potent here.

Compared with `CC(C)Cc1ccc(C(C)c2nc3cc(C(=O)O)ccc3n2Cc2ccccc2Cl)cc1` (stereo not drawn) [Compound 53], `CC(C)Cc1ccc(C(C)c2nc3cc(Br)ccc3n2Cc2ccccc2Cl)cc1` (stereo not drawn) [Compound 52] is higher in IC50: 10 to 20 µM for the first, > 20 µM for the second. The first is the more potent here.

First: CCOC(=O)CCc1c(SC(C)(C)C)c2cc(C(C)C)ccc2n1Cc1ccc(Cl)cc1 [Compound 12]
Second: CC(C)c1ccc2c(c1)c(SC(C)(C)C)c(CCC(=O)O)n2Cc1ccc(Cl)cc1 [Compound 11, 3-(3-(tert-butylthio)-1-(4-chlorobenzyl)-5-isopropyl-1H-indol-2-yl) Propanoic Acid]
The IC50 of the first is higher: > 20 µM for the first, 5 to 10 µM for the second.

`CC(C)(Cc1c(C(=O)c2ccc(Cl)cc2)c2ccc(O)cc2n1CC1CCC1)C(=O)O` [Compound 29, 3-(3-(4-chlorobenzoyl)-1-(cyclobutylmethyl)-6-hydroxy-1H-indol-2-yl)-2,2-dimethylpropanoic Acid] and `CCOC(=O)C(C)(C)Cc1c(C(=O)c2ccc(Cl)cc2)c2ccc(O)cc2n1CC1CCC1` [Compound 30, Ethyl 3-(3-(4-chlorobenzoyl)-1-(cyclobutylmethyl)-6-hydroxy-1H-indol-2-yl)-2,2-dimethylpropanoate] cannot be ordered by IC50: > 20 µM for the first, > 20 µM for the second.

First: COc1ccc2c(c1)nc(-c1ccc(CC(C)C)cc1)n2Cc1ccccc1Cl [Compound 50]
Second: CC(C)Cc1ccc(-c2nc3cc(O)ccc3n2Cc2ccccc2Cl)cc1 [Compound 51]
The IC50 of the first is higher: 10 to 20 µM for the first, 5 to 10 µM for the second.

`COc1ccc2c(c1)c(C(=O)CC(C)(C)C)c(CC(C)(C)C(=O)O)n2Cc1ccc(Cl)cc1` [Compound 22] and `COC(=O)C(C)(C)Cc1c(C(=O)CC(C)(C)C)c2cc(OC)ccc2n1Cc1ccc(Cl)cc1` [Compound 21] cannot be ordered by IC50: > 20 µM for the first, > 20 µM for the second.

First: CCOC(=O)C(C)(C)Cc1c(C(=O)C2CCC2)c2cc(C(C)C)ccc2n1Cc1ccc(Cl)cc1 [Compound 2, ethyl 3-(1-(4-chlorobenzyl)-3-(cyclobutanecarbonyl)-5-isopropyl-1H-indol-2-yl)-2,2-dimethylpropanoate]
Second: CC(C)c1ccc2c(c1)c(C(=O)C1CCC1)c(CC(C)(C)C(=O)O)n2Cc1ccc(Cl)cc1 [Compound 1, 3-(1-(4-chlorobenzyl)-3-(cyclobutanecarbonyl)-5-isopropyl-1H-indol-2-yl)-2,2-dimethylpropanoic acid]
The IC50 of the first is higher: > 20 µM for the first, 1 to 5 µM for the second. The second is the more potent here.

Compared with `COc1ccc2c(c1)c(SC(C)(C)C)c(CC(C)(C)c1nnnn1C)n2Cc1ccc(Cl)cc1` [Compound 35, 3-(tert-butylthio)-1-(4-chlorobenzyl)-5-methoxy-2-(2-methyl-2-(1-methyl-1H-tetrazol-5-yl)propyl)-1H-indole], `Cn1nnnc1C(C)(C)Cc1c(SC(C)(C)C)c2cc(O)ccc2n1Cc1ccc(Cl)cc1` [Compound 37, 3-(tert-butylthio)-1-(4-chlorobenzyl)-2-(2-methyl-2-(1-methyl-1H-tetrazol-5-yl)propyl)-1H-indol-5-ol] is higher in IC50: 5 to 10 µM for the first, 10 to 20 µM for the second. The first is the more potent here.

`COc1ccc2c(c1)nc(C(C)c1ccc(CC#N)cc1)n2Cc1ccccc1Cl` (stereo not drawn) [Compound 44] and `COc1ccc2c(c1)nc(C(C)c1ccc(CO)cc1)n2Cc1ccccc1Cl` (stereo not drawn) [Compound 43] cannot be ordered by IC50: > 20 µM for the first, > 20 µM for the second.

First: CCOC(=O)C(C)(C)Cc1c([S+]([O-])CC(C)(C)C)c2cc(C(C)C)ccc2n1Cc1ccc(Cl)cc1 (stereo not drawn) [Compound 6]
Second: CC(C)c1ccc2c(c1)c([S+]([O-])CC(C)(C)C)c(CC(C)(C)C(=O)O)n2Cc1ccc(Cl)cc1 (stereo not drawn) [Compound 5]
The IC50 of the first is lower: 10 to 20 µM for the first, > 20 µM for the second. The first is the more potent here.

First: CC(C)(C)CC(=O)c1c(CC(C)(C)C(=O)O)n(Cc2ccc(Cl)cc2)c2ccc(O)cc12 [Compound 19]
Second: COC(=O)C(C)(C)Cc1c(C(=O)CC(C)(C)C)c2cc(O)ccc2n1Cc1ccc(Cl)cc1 [Compound 24]
The IC50 of the first is higher: > 20 µM for the first, 1 to 5 µM for the second. The second is the more potent here.

Compared with `COC(=O)Cc1c(SC(C)(C)C)c2cc(C(C)C)ccc2n1Cc1ccc(Cl)cc1` [Compound 14, methyl 2-(3-(tert-butylthio)-1-(4-chlorobenzyl)-5-isopropyl-1H-indol-2-yl)acetate], `CC(C)c1ccc2c(c1)c(SC(C)(C)C)c(CC(=O)O)n2Cc1ccc(Cl)cc1` [Compound 13, 2-(3-(tert-butylthio)-1-(4-chlorobenzyl)-5-isopropyl-1H-indol-2-yl) Acetic Acid] is lower in IC50: > 20 µM for the first, 10 to 20 µM for the second. The second is the more potent here.

`COc1ccc2c(c1)nc(C(C)c1ccc(C(=O)O)cc1)n2Cc1ccccc1Cl` (stereo not drawn) [Compound 41] and `COc1ccc2c(c1)nc(C(C)c1ccc(CC(=O)O)cc1)n2Cc1ccccc1Cl` (stereo not drawn) [Compound 45] cannot be ordered by IC50: > 20 µM for the first, > 20 µM for the second.

Compared with `COC(=O)Cc1ccc(C(C)c2nc3cc(OC)ccc3n2Cc2ccccc2Cl)cc1` (stereo not drawn) [Compound 46], `COc1ccc2c(c1)nc(C(C)c1ccc(CCO)cc1)n2Cc1ccccc1Cl` (stereo not drawn) [Compound 47] is higher in IC50: 10 to 20 µM for the first, > 20 µM for the second.

Compared with `CC(C)c1ccc2c(C(=O)c3ccc(Cl)cc3)c(CC(C)(C)C(=O)O)n(CC3CCC3)c2c1` [Compound 27], `COC(=O)C(C)(C)Cc1c(C(=O)c2ccc(Cl)cc2)c2ccc(C(C)C)cc2n1CC1CCC1` [Compound 28, methyl 3-(3-(4-chlorobenzoyl)-1-(cyclobutylmethyl)-6-isopropyl-1H-indol-2-yl)-2,2-dimethylpropanoate] is higher in IC50: 5 to 10 µM for the first, > 20 µM for the second. The first is the more potent here.

First: COc1ccc2c(c1)c(SC(C)(C)C)c(CC(C)(C)c1nnn(C)n1)n2Cc1ccc(Cl)cc1 [Compound 36, 3-(tert-butylthio)-1-(4-chlorobenzyl)-5-methoxy-2-(2-methyl-2-(2-methyl-2H-tetrazol-5-yl)propyl)-1H-indole]
Second: CC(C)c1ccc2c(c1)c(SC(C)(C)C)c(CC(C)(C)C)n2Cc1ccc(Cl)cc1 [Compound 15]
The IC50 of the first is lower: 5 to 10 µM for the first, > 20 µM for the second.

Compared with `CCOC(=O)C(C)(C)Cc1c(C(=O)C(C)C)c2cc(C(C)C)ccc2n1Cc1ccc(Cl)cc1` [Compound 10, Ethyl 3-(1-(4-chlorobenzyl)-3-isobutyryl-5-isopropyl-1H-indol-2-yl)-2,2-dimethylpropanoate], `CC(C)C(=O)c1c(CC(C)(C)C(=O)O)n(Cc2ccc(Cl)cc2)c2ccc(C(C)C)cc12` [Compound 9, 3-(1-(4-chlorobenzyl)-3-isobutyryl-5-isopropyl-1H-indol-2-yl)-2,2-dimethylpropanoic Acid] is lower in IC50: > 20 µM for the first, 10 to 20 µM for the second. The second is the more potent here.

`COc1cnc2c(c1)c(SC(C)(C)C)c(CC(C)(C)C(=O)O)n2Cc1ccc(Cl)cc1` [Compound 17] and `CCOC(=O)C(C)(C)Cc1c(SC(C)(C)C)c2cc(OC)cnc2n1Cc1ccc(Cl)cc1` [Compound 18] cannot be ordered by IC50: > 20 µM for the first, > 20 µM for the second.

First: CC(C)c1cnc2c(c1)c(C(=O)C1CCC1)c(CC(C)(C)C(=O)O)n2Cc1ccc(Cl)cc1 [Compound 16, 3-(1-(4-chlorobenzyl)-3-(cyclobutanecarbonyl)-5-isopropyl-1H-pyrrolo-[2,3-b]pyridin-2-yl)-2,2-dimethylpropanoic acid]
Second: CC(C)(C)CCc1c(CC(C)(C)CO)n(Cc2ccc(Cl)cc2)c2ccc(O)cc12 [Compound 20]
The IC50 of the first is higher: 10 to 20 µM for the first, 1 to 5 µM for the second. The second is the more potent here.

First: COc1ccc2c(c1)c(-c1ccc(CC(C)C)cc1)cn2Cc1ccccc1Cl [Compound 56, 1-(2-chlorobenzyl)-3-(4-isobutylphenyl)-5-methoxy-1H-indole]
Second: COc1ccc2c(c1)c(CCC(C)(C)C)c(CC(C)(C)CO)n2Cc1ccc(Cl)cc1 [Compound 26]
The IC50 of the first is higher: > 20 µM for the first, 1 to 5 µM for the second.

Same assay, conditions: tumor cells treated 48 hours, cell survival by MTT

For “3-(tert-butylthio)-1-(4-chlorobenzyl)-2-(2-methyl-2-(2-methyl-2H-tetrazol-5-yl)propyl)-1H-indol-5-ol [Compound 38]”, the IC50 was 1 to 5 µM.
